Source: patent US6887202B2, “Systems and methods for monitoring health and delivering drugs transdermally” (Science Applications International Corporation, priority 2000, dated 2005)
Read-outs that look alike come from different tables or passages of the source.

Columns and labels:
α3/β4 nAChR [1] = molecular target: T1, α3/β4 nAChR (Rattus norvegicus, UniProt P04757+P12392); assay: Frontal chromatography with α3/β4 nAChR-IAM stationary phase ([3H]-EB marker); format: binding
T1 construct: expressed in transfected cells
T1 sequence (P04757 26-499): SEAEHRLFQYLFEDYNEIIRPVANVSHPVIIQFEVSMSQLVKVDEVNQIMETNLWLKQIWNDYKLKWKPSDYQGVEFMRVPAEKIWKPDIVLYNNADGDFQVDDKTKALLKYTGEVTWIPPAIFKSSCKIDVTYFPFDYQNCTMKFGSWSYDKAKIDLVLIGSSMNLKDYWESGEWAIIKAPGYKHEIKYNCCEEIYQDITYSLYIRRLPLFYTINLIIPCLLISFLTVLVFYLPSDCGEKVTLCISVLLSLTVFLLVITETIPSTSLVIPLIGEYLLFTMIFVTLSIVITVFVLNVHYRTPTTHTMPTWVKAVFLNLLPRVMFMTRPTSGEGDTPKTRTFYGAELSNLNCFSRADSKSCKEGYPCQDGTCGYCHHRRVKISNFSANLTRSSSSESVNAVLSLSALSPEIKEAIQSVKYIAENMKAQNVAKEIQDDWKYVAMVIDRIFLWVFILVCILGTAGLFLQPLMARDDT
T1 sequence (P12392 21-495): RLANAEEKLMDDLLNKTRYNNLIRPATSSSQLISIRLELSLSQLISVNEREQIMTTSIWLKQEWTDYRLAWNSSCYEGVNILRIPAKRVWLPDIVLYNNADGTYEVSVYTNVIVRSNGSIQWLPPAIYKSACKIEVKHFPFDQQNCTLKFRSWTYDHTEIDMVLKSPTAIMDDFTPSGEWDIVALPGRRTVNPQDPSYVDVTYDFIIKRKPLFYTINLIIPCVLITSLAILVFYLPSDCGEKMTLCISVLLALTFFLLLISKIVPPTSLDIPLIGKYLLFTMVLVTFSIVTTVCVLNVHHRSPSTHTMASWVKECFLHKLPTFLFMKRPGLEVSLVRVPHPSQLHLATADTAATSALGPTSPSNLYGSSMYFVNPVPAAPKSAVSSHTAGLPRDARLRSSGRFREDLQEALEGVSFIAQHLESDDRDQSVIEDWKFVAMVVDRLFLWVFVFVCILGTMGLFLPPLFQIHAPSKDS
Procedure: Rat whole forebrain or transfected cells are suspended in 50 mM Tris-HCI, pH 7.4, (buffer A), homogenized for 30 seconds with Brinkmann Polytron, and centrifuged at 40,000×g for 10 min at 4° C. The pellet is resuspended in 6 ml of 2% deoxycholate or 2% cholate in buffer A and stirred for 2 hours. The mixture is centrifuged at 35,000×g for 30 minutes, and the supernatant containing nAChR-deoxycholate solution is collected.
Dried IAM particles are suspended in 4 ml of the obtained detergent solutions containing nAChR subunits or subtypes. For the immobilization of one nAChR subtype, the mixture of IAM-detergent-receptor is stirred for 1 hour at room temperature. The suspension is dialyzed against 2×1 L buffer A for 24 hours at 4° C. The IAM LC support with immobilized nAChRs is then washed with buffer A, centrifuged and the solid collected.
Chromatography based on nAChR-LAMcolumn or nAChR-liposome-Superdex 200 column: The nAChR-IAM particles or nAChR-Superdex gel beads are packed in a HR5/2 glass column and connected to a HPLC pump. […] All chromatographic experiments are performed at flow rate 0.4 ml/min at room temperature.
The chromatographic data is summed up in 1-min intervals and smoothed using the Microsoft Excel program with a 10 point moving average.

GABAA receptor [2] = details: read-out: Kd, Binding Assays; classical binding assays
GABAA receptor [3] = assay: Frontal chromatography on immobilized GABAA receptor (GR-IAM), [3H]-flunitrazepam marker; format: binding, rat
Procedure: Supernatant is discarded.
All chromatographic experiments are performed at flow rate 0.4 ml/min at room temperature. […] The chromatographic data is summed up in 1-min intervals and smoothed using the Microsoft Excel program with a 10 point moving average.

α3/β4 nAChR [4] = molecular target: T1, α3/β4 nAChR; assay: Ligand binding assay using cell membrane homogenates
[5] = a3/(34-IAM stationary phase (0.5 × 1.3 cm)), read-out: Kd (frontal chromatography)

CN1CCCC1c1cccnc1 (single isomer, unassigned; (-)) [(−)-Nicotine]
mobile phase concentration required to decrease the retention volume of 60 pM [3H]-EB from 9.5 ml to 6 ml (α3/β4 nAChR [1]): 45 nM

CN1C(=O)CN=C(c2ccccc2)c2cc(Cl)ccc21 [Diazepam]
Kd (GABAA receptor [2]): 1.3 nM | Kd (GABAA receptor [3]): 1 nM

C[N+](C)(C)CCOC(N)=O [Carbachol]
mobile phase concentration required to decrease the retention volume of 60 pM [3H]-EB from 9.5 ml to 6 ml (α3/β4 nAChR [1]): 1,200 nM | Kd (α3/β4 nAChR [1]; [5]): 1280 nM | Kd (α3/β4 nAChR [4]): 3840 nM

c1cncc(OC[C@@H]2CCN2)c1 [A85380]
Kd (α3/β4 nAChR [1]; [5]): 17.2 ± 0.5 nM | mobile phase concentration required to decrease the retention volume of 60 pM [3H]-EB from 9.5 ml to 6 ml (α3/β4 nAChR [1]; α3/β4 nAChR column (0.5×1.25 cm)): 1.7 nM | Kd (α3/β4 nAChR [4]): 73.6 ± 6.3 nM

CN1[C@@H]2CC[C@H]1C[C@@H](OC(=O)C(CO)c1ccccc1)C2 (stereo partly shown) [Atropine]
Kd (α3/β4 nAChR [1]): 14600 nM
